# Data: PubChem BioAssay (NCI)
# Several values for one entry are separate records, joined by “and”; a condition that tells them apart may be missing. Identical values can stand only once.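 These data come from cells grown in 96-well plates and exposed to compound for 48 hours at five concentrations. At the GI50, growth is halved. Definition used: TGI = concentration required for complete inhibition of growth.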
# System: SK-OV-3 ovarian
# Test: NCI tumour cell line growth inhibition, 48 h
Compound,TGI [µM],GI50
CCCCCCCCCCCCCCCC(=O)OCC(C[As](=O)(O)O)OC(=O)CCCCCCCCCCCCCCC (stereo unspecified),> 100,–
O=C1/C(=C(/c2ccccc2)N2CCOCC2)Cc2ccccc21,72.6,23.1 µM
CC1=CC(=O)C=CC1=O,93.8,37.5 µM and 25.5 µM
CCCC(CCC)NCC(O)c1cc(-c2ccc(C(F)(F)F)cc2)nc(C(F)(F)F)c1 (stereo unspecified),3.22,1.75 µM
Cc1cc(C)c(NC(=O)c2sc3nc4c(cc3c2N)C(=O)CCC4)c(C)c1,> 100,2.07 µM
CN(C)CCNc1ccc(CO)c2oc3ccc(O)cc3c(=O)c12,37.4,–
Cc1ccc(NC(=O)c2cccc(C(C)(C)C#N)c2)cc1Nc1ccc2ncn(C)c(=O)c2c1,> 100,> 100 µM
Cc1cc2ncnn2cc1Nc1ncc2c(n1)n(C1CCOCC1)c(=O)n2C,15.2,2.15 µM
Cc1ccc(N=C/C=C(\Nc2ccc(C)cc2)c2ccc(Cl)cc2)cc1,> 100,21 µM
COc1ccc(C(=O)c2cc(C)c(OC)c(C)c2)c(OC)c1O,> 100,0.228 µM
COCC[C@H]1CCC/C=C/[C@@H]2C[C@H](O)C[C@H]2[C@H](O)/C=C/C(=O)O1,> 100,0.0725 µM
COC(=O)Nc1nc2ccc(C3(c4ccc(F)cc4)OCCO3)cc2[nH]1,> 100,0.587 µM
O=C(Nc1n[nH]c2cc(-c3ccccc3)ccc12)C1CC1,> 25,14.2 µM

# System: RXF 393 renal
# Test: NCI tumour cell line growth inhibition, 48 h
Compound,GI50,TGI
COc1cc(OC)c(C(=O)/C=C/c2cccc(C(F)(F)F)c2)c(OC)c1,1.03 µM,2.24 µM
C/C(=N\Nc1ccc(Cl)cn1)c1ccc2ccccc2n1,2.95 µM,> 100 µM
CN1CCc2nc(N)nc(-c3nc(N)nc4c3CN(C)CC4)c2C1,–,> 100 µM
COc1c2c(cc3c1OCO3)[C@]13C=C[C@H](OC)C[C@H]1N(C2)CC3O (stereo partly specified),–,> 100 µM
COc1ccc(C[N+](C)(C)N)cc1OC,–,> 100 µM
COc1c(C(=O)/C=C/c2ccccc2)c(O)cc2occc12,3.56 µM,15.6 µM
CC(C)c1c(O)c(O)c2c(c1O)C(=O)C(O)=C1C(C)(C)CCC[C@@]12C,–,9.24 µM
NS(=O)(=O)c1ccc(-c2ccc3c(NC(=O)C4CC4)n[nH]c3c2)cc1,> 25 µM,> 25 µM
C=CCCCCC/C=C\[C@@H](O)C#CC#C/C=C/CO,> 100 µM,> 100 µM
N#Cc1cc(-c2cc3ccccc3o2)oc1N,3.96 µM,13.5 µM
Cc1cc(C(=O)Nc2ccc3cc(CN4CCOCC4)ccc3n2)c(C)n1-c1ccccc1,2.18 µM,7.01 µM
O=S(=O)(c1ccc(NC(=S)NC23CC4CC(CC(C4)C2)C3)cc1)N1CCCCC1,2.37 µM,6.6 µM
CCCCCCCCCCCCCCCC(=O)OCC(C[As](=O)(O)O)OC(=O)CCCCCCCCCCCCCCC (stereo unspecified),–,> 100 µM
O=C1/C(=C(/c2ccccc2)N2CCOCC2)Cc2ccccc21,0.883 µM,2.19 µM
CC1=CC(=O)C=CC1=O,16.8 µM and 12.1 µM,31.5 µM and 27.4 µM
CCCC(CCC)NCC(O)c1cc(-c2ccc(C(F)(F)F)cc2)nc(C(F)(F)F)c1 (stereo unspecified),1.47 µM,2.82 µM
Cc1cc(C)c(NC(=O)c2sc3nc4c(cc3c2N)C(=O)CCC4)c(C)c1,1.32 µM,4.43 µM
CN(C)CCNc1ccc(CO)c2oc3ccc(O)cc3c(=O)c12,–,28.4 µM
Cc1ccc(NC(=O)c2cccc(C(C)(C)C#N)c2)cc1Nc1ccc2ncn(C)c(=O)c2c1,6.87 µM,> 73.4 µM
Cc1cc2ncnn2cc1Nc1ncc2c(n1)n(C1CCOCC1)c(=O)n2C,3.73 µM,29.9 µM
Cc1ccc(N=C/C=C(\Nc2ccc(C)cc2)c2ccc(Cl)cc2)cc1,17.6 µM,59.2 µM
COc1ccc(C(=O)c2cc(C)c(OC)c(C)c2)c(OC)c1O,0.163 µM,> 100 µM
COCC[C@H]1CCC/C=C/[C@@H]2C[C@H](O)C[C@H]2[C@H](O)/C=C/C(=O)O1,0.0219 µM,0.0539 µM
COC(=O)Nc1nc2ccc(C3(c4ccc(F)cc4)OCCO3)cc2[nH]1,0.211 µM,0.654 µM
O=C(Nc1n[nH]c2cc(-c3ccccc3)ccc12)C1CC1,7.91 µM,> 25 µM

# System: HOP-62 NSCLC
# Test: NCI tumour cell line growth inhibition, 48 h
Compound,GI50,TGI [µM]
COc1cc(OC)c(C(=O)/C=C/c2cccc(C(F)(F)F)c2)c(OC)c1,1.56 µM,5.46
C/C(=N\Nc1ccc(Cl)cn1)c1ccc2ccccc2n1,2.83 µM,> 100
CN1CCc2nc(N)nc(-c3nc(N)nc4c3CN(C)CC4)c2C1,–,> 100
COc1c2c(cc3c1OCO3)[C@]13C=C[C@H](OC)C[C@H]1N(C2)CC3O (stereo partly specified),–,> 100
COc1ccc(C[N+](C)(C)N)cc1OC,> 100 µM,> 100
COc1c(C(=O)/C=C/c2ccccc2)c(O)cc2occc12,11.3 µM,25.2
CC(C)c1c(O)c(O)c2c(c1O)C(=O)C(O)=C1C(C)(C)CCC[C@@]12C,–,> 100
NS(=O)(=O)c1ccc(-c2ccc3c(NC(=O)C4CC4)n[nH]c3c2)cc1,> 25 µM,> 25
C=CCCCCC/C=C\[C@@H](O)C#CC#C/C=C/CO,> 100 µM,> 100
N#Cc1cc(-c2cc3ccccc3o2)oc1N,3.18 µM,11.3
Cc1cc(C(=O)Nc2ccc3cc(CN4CCOCC4)ccc3n2)c(C)n1-c1ccccc1,1.72 µM,8.05
O=S(=O)(c1ccc(NC(=S)NC23CC4CC(CC(C4)C2)C3)cc1)N1CCCCC1,3.67 µM,> 100
CCCCCCCCCCCCCCCC(=O)OCC(C[As](=O)(O)O)OC(=O)CCCCCCCCCCCCCCC (stereo unspecified),–,> 100
O=C1/C(=C(/c2ccccc2)N2CCOCC2)Cc2ccccc21,12.5 µM,27.1
CC1=CC(=O)C=CC1=O,35.9 µM and 25.3 µM,75.3
CCCC(CCC)NCC(O)c1cc(-c2ccc(C(F)(F)F)cc2)nc(C(F)(F)F)c1 (stereo unspecified),1.66 µM,3.12
Cc1cc(C)c(NC(=O)c2sc3nc4c(cc3c2N)C(=O)CCC4)c(C)c1,4.56 µM,> 100
CN(C)CCNc1ccc(CO)c2oc3ccc(O)cc3c(=O)c12,–,27.3
Cc1ccc(NC(=O)c2cccc(C(C)(C)C#N)c2)cc1Nc1ccc2ncn(C)c(=O)c2c1,1.11 µM,> 100
Cc1cc2ncnn2cc1Nc1ncc2c(n1)n(C1CCOCC1)c(=O)n2C,3.95 µM,78.2
Cc1ccc(N=C/C=C(\Nc2ccc(C)cc2)c2ccc(Cl)cc2)cc1,14.9 µM,35.9
COc1ccc(C(=O)c2cc(C)c(OC)c(C)c2)c(OC)c1O,0.19 µM,> 100
COCC[C@H]1CCC/C=C/[C@@H]2C[C@H](O)C[C@H]2[C@H](O)/C=C/C(=O)O1,0.0946 µM,> 100
COC(=O)Nc1nc2ccc(C3(c4ccc(F)cc4)OCCO3)cc2[nH]1,3.24 µM,> 100
